Values quoted from earlier work in US20200353179A1, “Device for Deterring Abuse of Drugs” (EIGHTY EIGHT PHARMA, INC., priority 2017, published 2020).
Structures can show the parent of a compound that is named as a salt. Where two headings read alike, the source gives them in different places.

How the values were obtained:
[1] = 800 mg daily for up to one week
[2] = tested on: pharmacologic effects of intravenously administered heroin

SMILES: O=C1CC[C@@]2(O)[C@H]3Cc4ccc(O)c5c4[C@@]2(CCN3CC2CC2)[C@H]1O5 [naltrexone hydrochloride]
- toxicity in human subjects [1]: no evidence of toxicity
- signs produced by high doses (animals; high doses, generally >1,000 mg/kg): salivation, depression/reduced activity, tremors, and convulsions
- cause of mortalities in animals (animals; high-dose naltrexone administration): tonic-clonic convulsions and/or respiratory failure
- duration of blockade of pharmacologic effects of heroin ([2]; 50 mg naltrexone hydrochloride, 25 mg intravenously administered heroin): ≤ 24 hours
- duration of blockade ([2]; doubling the dose of naltrexone hydrochloride): 48 h
- effect on the subjective effects of intravenously administered opioids ([2]; intravenously administered opioids): markedly attenuates or completely blocks, reversibly
- duration of blockade ([2]; tripling the dose of naltrexone hydrochloride): about 72 hours
